Measurements: ChEMBL document CHEMBL3638618, “Uracil compound or salt thereof having human deoxyuridine triphosphatase inhibitory activity” (2013)

Biological target: T1, Deoxyuridine 5'-triphosphate nucleotidohydrolase, mitochondrial (Homo sapiens, UniProt P33316)
T1 sequence (P33316 whole entry): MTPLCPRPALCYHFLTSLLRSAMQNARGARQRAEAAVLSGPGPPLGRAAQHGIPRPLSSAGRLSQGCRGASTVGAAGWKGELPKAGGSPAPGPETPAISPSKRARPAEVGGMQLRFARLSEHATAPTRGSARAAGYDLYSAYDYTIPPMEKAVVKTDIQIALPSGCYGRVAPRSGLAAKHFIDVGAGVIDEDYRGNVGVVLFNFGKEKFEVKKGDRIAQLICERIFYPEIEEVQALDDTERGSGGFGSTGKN
Assay: Inhibition Assay: The inhibitory activity of the compound against human dUTPase was determined by measuring the production of [5-3H]deoxyuridine monophosphate from [5-3H]deoxyuridine triphosphate.

- IC50: 0.41 µM
SMILES: C[C@@H](NS(=O)(=O)CCCOCn1ccc(=O)[nH]c1=O)c1cccc(OCCF)c1
